{
  "source": "ChEMBL document CHEMBL3507680",
  "about": "“University of Dundee, Gates Library screen for HepG2 cell viability”",
  "data": [
    {"test": "Human HepG2 cell viability assay in 384 well format", "format": "toxicity, cell-based", "design": "dose 125 nL, time 70.5 hour; cytotoxicity at 70.5 h: concentration not given beside the values", "settings": "HepG2 cells, read-out: Inhibition", "units": {"cytotoxicity at 70.5 h": "%"}, "values": [
      {"smiles": "O=C(C1CCOC1)N1CCc2ncnc(C3CC3)c2CC1", "note": "(stereo not given)", "cytotoxicity at 70.5 h": 0.686},
      {"smiles": "c1cn(Cc2ccc(N3CCCN(C4CCCC4)CC3)nc2)cn1", "cytotoxicity at 70.5 h": 38.7},
      {"smiles": "Cn1cc(C#N)cc1C(=O)Nc1ccc(CN2CCOCC2)cn1", "cytotoxicity at 70.5 h": -2.71},
      {"smiles": "CN(C)Cc1nnn2c1CN(Cc1cccnc1)CCC2", "cytotoxicity at 70.5 h": -83.6},
      {"smiles": "NC(=O)C1CCN(C(=O)NCc2ccc3c(c2)OCCO3)CC1", "cytotoxicity at 70.5 h": -9.87},
      {"smiles": "CC(c1cccc(-c2ncc(C#N)c(N)n2)c1)N(C)C", "note": "(stereo not given)", "cytotoxicity at 70.5 h": -12.5},
      {"smiles": "CC(=O)N1CCN(c2cnnc(N3CCCC3)c2)CC1", "cytotoxicity at 70.5 h": -1.26},
      {"smiles": "CN(C)C(C(=O)NCC1(C)COC1)c1cccc(F)c1", "note": "(stereo not given)", "cytotoxicity at 70.5 h": -3.06},
      {"smiles": "COCCN1CCC(c2nc3c([nH]2)CC(C)(C)CNC3=O)C1", "note": "(stereo not given)", "cytotoxicity at 70.5 h": 10.3},
      {"smiles": "CN(C)S(=O)(=O)N1CC[C@]2(O)CCN(CCCc3cccnc3)C[C@@H]2C1", "cytotoxicity at 70.5 h": 1.31},
      {"smiles": "Cc1ccc(-c2nnc(NC(=O)c3ccn(C)c(=O)c3)[nH]2)s1", "cytotoxicity at 70.5 h": -19.1},
      {"smiles": "Cc1cccc(S(=O)(=O)N2CC[C@H]3[C@H]2CCN3c2ncccn2)c1", "cytotoxicity at 70.5 h": -6.57},
      {"smiles": "c1ccc2c(Cc3nnc([C@H]4CCN(C5CCOCC5)C4)o3)c[nH]c2c1", "cytotoxicity at 70.5 h": -0.535},
      {"smiles": "CCN(CC1CCOCC1)C(=O)Cn1cccc(C(F)(F)F)c1=O", "cytotoxicity at 70.5 h": -7.19},
      {"smiles": "CC(CN1CCOCC1)N(Cc1ccccc1)Cc1ccncc1", "note": "(stereo not given)", "cytotoxicity at 70.5 h": -6.88},
      {"smiles": "O=C(CO[C@@H]1CC[C@H]2[C@H]1OCCN2c1ncccn1)N1CCCC1", "cytotoxicity at 70.5 h": -0.322},
      {"smiles": "COc1ccc(S(=O)(=O)N[C@H]2CN(C(C)=O)C[C@@H]2C2CC2)cc1C", "cytotoxicity at 70.5 h": -14.2},
      {"smiles": "CCc1csc(NC(=O)Nc2c(C)n[nH]c2C)n1", "cytotoxicity at 70.5 h": -4.31},
      {"smiles": "O=C(N1CCOCC1)[C@@]12CCO[C@@H]1CCN(C1CCCC1)C2", "cytotoxicity at 70.5 h": -15.6},
      {"smiles": "Cn1c(NC(=O)CCS(=O)(=O)C2CCCC2)nc2cc(Cl)ccc21", "cytotoxicity at 70.5 h": -9.03},
      {"smiles": "N#Cc1cccc(NC(=O)C2CCCN2c2nccs2)c1", "note": "(stereo not given)", "cytotoxicity at 70.5 h": -2.24},
      {"smiles": "CC(C)c1ccc(OCCC(=O)N2CCC(CC(N)=O)CC2)cc1", "cytotoxicity at 70.5 h": -3.31},
      {"smiles": "CCn1cnnc1CNC(=O)N1CCN(C(C)C)CC1", "cytotoxicity at 70.5 h": 26},
      {"smiles": "NC(=O)Cc1ccc(NC(=O)C2CCOCC2)cc1", "cytotoxicity at 70.5 h": -3.85},
      {"smiles": "Cc1nc2n(n1)CC(NCc1nc(-c3cccs3)no1)CC2", "note": "(stereo not given)", "cytotoxicity at 70.5 h": 0.591},
      {"smiles": "CC(=O)NCCNC(=O)CNC1CCCN(c2ccc(C)nn2)C1", "note": "(stereo not given)", "cytotoxicity at 70.5 h": 17.7},
      {"smiles": "CN(C)Cc1cc(C2CCN(C(=O)C3CC34CCC4)CC2)nn1C", "note": "(stereo not given)", "cytotoxicity at 70.5 h": -0.0295},
      {"smiles": "CN(C)c1ccc(-c2cccc(-c3ccn(CCCO)n3)c2)nn1", "cytotoxicity at 70.5 h": -3.34},
      {"smiles": "c1c(-c2nc(CN3CCOCC3)no2)nnn1CC1CCCCC1", "cytotoxicity at 70.5 h": -13.5},
      {"smiles": "CC(=O)N(C)Cc1ccccc1NCc1c(C)cccc1C", "cytotoxicity at 70.5 h": -3.43},
      {"smiles": "Cc1cc(Cl)c(C)c(S(=O)(=O)N2CCN(Cc3ccccn3)CC2)c1Cl", "cytotoxicity at 70.5 h": 40.2},
      {"smiles": "CCOC(=O)CN1CCC(C(=O)c2cc(F)ccc2F)CC1", "cytotoxicity at 70.5 h": 34.9},
      {"smiles": "O=C(CCCc1ccccn1)NCC(O)c1c(F)cccc1F", "note": "(stereo not given)", "cytotoxicity at 70.5 h": -1.43},
      {"smiles": "O[C@@H]1CN(c2nc3ccccc3s2)CC[C@H]1c1ccc2c(c1)OCO2", "cytotoxicity at 70.5 h": -3.71},
      {"smiles": "Cc1ncsc1CN1C[C@@H](OCc2ccncc2)[C@H]2OCCC[C@H]21", "cytotoxicity at 70.5 h": 3.55},
      {"smiles": "Cn1nc(C(=O)NC2(c3ccccc3)CCC2)ccc1=O", "cytotoxicity at 70.5 h": 1.95},
      {"smiles": "COc1ccc(Br)cc1CCC(=O)N1CCSCC1", "cytotoxicity at 70.5 h": 8.26},
      {"smiles": "CN(c1ccc(C(=O)NCCN2CCOCC2)c(Cl)c1)S(C)(=O)=O", "cytotoxicity at 70.5 h": -1.41},
      {"smiles": "CC1CN(c2ncnc3c2cnn3C)CCN1c1nccs1", "note": "(stereo not given)", "cytotoxicity at 70.5 h": -4.86},
      {"smiles": "C[C@@H]1C[C@@H]2CCN(Cc3ccccn3)C[C@H]2O1", "cytotoxicity at 70.5 h": -5.42},
      {"smiles": "CC(=O)N1CCN(C(=O)CCCc2nnc(-c3ccccc3)o2)CC1", "cytotoxicity at 70.5 h": -2.32},
      {"smiles": "Cc1nc(-c2cccc(N3CCC(N[C@@H]4CCOC4)CC3)c2)cs1", "cytotoxicity at 70.5 h": 0.567},
      {"smiles": "Cc1ncsc1CCN(C)C(=O)CN1CC2(CCCC2)CC1=O", "cytotoxicity at 70.5 h": -15},
      {"smiles": "CC(C)n1cnc(C2CN(C)c3ccc(C(=O)NCC4CC4)cc32)n1", "note": "(stereo not given)", "cytotoxicity at 70.5 h": -3.88},
      {"smiles": "O=C(c1ccc[nH]1)N1CCOCC12CCCC2", "cytotoxicity at 70.5 h": 30.2},
      {"smiles": "Cc1oncc1C(=O)N[C@@H]1CN(Cc2ccco2)C[C@@H]2CCCO[C@@H]21", "cytotoxicity at 70.5 h": -3.33},
      {"smiles": "CN(C)CC1CN(Cc2coc(-c3ccc(Cl)cc3)n2)CCO1", "note": "(stereo not given)", "cytotoxicity at 70.5 h": 12.9},
      {"smiles": "CCCn1c(C)c(CC(=O)N(C)CCOC)c2c1CC(C)(C)CC2=O", "cytotoxicity at 70.5 h": -7.09},
      {"smiles": "CCc1nc(Cn2nc(COC)oc2=O)cs1", "cytotoxicity at 70.5 h": -9.78},
      {"smiles": "COCC(NC(=O)c1cc(NC(C)=O)ccc1Cl)c1ccccn1", "note": "(stereo not given)", "cytotoxicity at 70.5 h": -5.35},
      {"smiles": "COCC(=O)N1CC[C@]2(O)CCN(Cc3ccsc3)C[C@@H]2C1", "cytotoxicity at 70.5 h": -7.01},
      {"smiles": "CCn1c(C2CCNCC2)nn(Cc2ccc(C(=O)NC)o2)c1=O", "cytotoxicity at 70.5 h": -12.2},
      {"smiles": "CC(OCC1CC1)C(=O)N1CCCN(Cc2nccn2C)CC1", "note": "(stereo not given)", "cytotoxicity at 70.5 h": -11.2},
      {"smiles": "CCOC(=O)C1CCN(C(=O)Cc2c(C)nc(C)[nH]c2=O)CC1", "cytotoxicity at 70.5 h": 12.3},
      {"smiles": "COc1ccc(CNC[C@H]2COCc3nc4cc(F)ccc4n32)cn1", "cytotoxicity at 70.5 h": -18.3},
      {"smiles": "COCCC(=O)N1CCCC1c1nc(O)cc(-c2ccccn2)n1", "note": "(stereo not given)", "cytotoxicity at 70.5 h": -5.06},
      {"smiles": "Cc1csc(C2CCCN(C(=O)c3ccc(=O)n(C)n3)C2)n1", "note": "(stereo not given)", "cytotoxicity at 70.5 h": -9.44},
      {"smiles": "O=C1C[C@H]2[C@@H](CCN2C(=O)c2ccc[nH]2)N1CCN1CCCC1", "cytotoxicity at 70.5 h": -2.17},
      {"smiles": "CCC(Nc1nc(C)nc2c1cnn2C)c1ncnn1CC", "note": "(stereo not given)", "cytotoxicity at 70.5 h": -1.28},
      {"smiles": "COCCN1CCn2cc(CN(C)Cc3ccco3)nc2C1", "cytotoxicity at 70.5 h": -7.59},
      {"smiles": "CC(C)c1n[nH]c(C(=O)NC(C)c2ccncc2)c1Br", "note": "(stereo not given)", "cytotoxicity at 70.5 h": -2.63},
      {"smiles": "CCn1ccnc1CN(C)c1cc(OC)ncn1", "cytotoxicity at 70.5 h": -8.04},
      {"smiles": "O=C(CCCOCc1ccccc1)N1CCCC(n2cncn2)C1", "note": "(stereo not given)", "cytotoxicity at 70.5 h": -1.64},
      {"smiles": "O=C(CCc1ccc(F)c(F)c1)N1CCCCC1Cn1cccn1", "note": "(stereo not given)", "cytotoxicity at 70.5 h": -7.69},
      {"smiles": "CCOC(CC)C(=O)NCc1cccc(N2CCCCC2=O)c1", "note": "(stereo not given)", "cytotoxicity at 70.5 h": -6.54},
      {"smiles": "CN(Cc1nc(C2CC2)no1)C(=O)C1COc2ccccc2C1", "note": "(stereo not given)", "cytotoxicity at 70.5 h": -0.624},
      {"smiles": "Cc1cc(NC(=O)Cc2ccc3c(c2)OCO3)n(C)n1", "cytotoxicity at 70.5 h": -0.417},
      {"smiles": "CN(Cc1nc(C2CC2)no1)C(=O)c1cccc(CC2CCNCC2)c1", "cytotoxicity at 70.5 h": -5.09},
      {"smiles": "Cc1nc(CN2CCO[C@H]3[C@@H](Oc4ccccn4)CC[C@@H]32)cs1", "cytotoxicity at 70.5 h": 18.6},
      {"smiles": "Cc1[nH]nc2ncc(C(=O)N3CCN(CC(C)O)CC3)cc12", "note": "(stereo not given)", "cytotoxicity at 70.5 h": -5.99},
      {"smiles": "CC(C)CN1C[C@@H]2OCC(=O)N(c3ccccc3)[C@@H]2C1", "cytotoxicity at 70.5 h": -15.4},
      {"smiles": "CCc1[nH]ncc1C(=O)N1CCCN(Cc2nccn2C(C)C)CC1", "cytotoxicity at 70.5 h": 0.199},
      {"smiles": "CCN(C(=O)CN1CCN(CC(C)O)CC1)C1=CCCCC1", "note": "(stereo not given)", "cytotoxicity at 70.5 h": -3.37},
      {"smiles": "Cc1nccc(C(=O)NC(CN2CCCC2=O)c2ccccc2)n1", "note": "(stereo not given)", "cytotoxicity at 70.5 h": -3.75},
      {"smiles": "CC(C)N1c2sc(-c3ccsc3)nc2CC1C(=O)NC1CCCC1", "note": "(stereo not given)", "cytotoxicity at 70.5 h": -7.06},
      {"smiles": "CCCc1nc(C(=O)N(C)Cc2cc(CC)no2)cs1", "cytotoxicity at 70.5 h": 0.552},
      {"smiles": "CN1CCN([C@@H]2CCN(C3CCOC3)[C@H]2Cc2cnn(C)c2)CC1", "note": "(stereo not given in full)", "cytotoxicity at 70.5 h": -12.4},
      {"smiles": "CCc1ccc(C(=O)N2CCCN(Cc3nccn3CC)CC2)s1", "cytotoxicity at 70.5 h": 14},
      {"smiles": "Cc1nn(C)c(Cl)c1C1CCCN1C(=O)c1ccc2nncn2c1", "note": "(stereo not given)", "cytotoxicity at 70.5 h": 5.97},
      {"smiles": "Cn1cnc2c1C(COCC1CCOCC1)CN(C(=O)c1ccoc1)C2", "note": "(stereo not given)", "cytotoxicity at 70.5 h": 11.3}
    ]}
  ]
}
